Measured values taken from ChEMBL document CHEMBL1122054, “Lysosomotropic agents. 4. Carbobenzoxyglycylphenylalanyl, a new protease-sensitive masking group for introduction into cells” (J Med Chem, 1982).
Values joined by “and” are separate entries in the source; they are usually repeats but may differ in a detail not shown here. Equal entries are not always repeated. Where a SMILES comes first, the peptide text is derived from it. The star is where a group is joined. Cbz = O=C(OCc1ccccc1)*

Experiments:
Mus musculus [1] = organism: Mus musculus; assay: Toxicity toward P-815 Mastocytoma cells after 5 hr was determined as percent of [51Cr]- release from labeled cells as a measure of cell death. at a concentration of 0.281 mM. (expt IV); type: functional
Mus musculus [2] = organism: Mus musculus; assay: Evaluated for the percent inhibition uptake of radiolabeled thymidine as a measure of inhibition of cell division against the SV40-transformed 3T3 cells after 4 hr at the concentration of 3x10E4M; type: functional, NIH3T3
Mus musculus [3] = organism: Mus musculus; assay: Evaluated for the percent inhibition uptake of radiolabeled thymidine as a measure of inhibition of cell division against the SV40-transformed 3T3 cells after 4 hr at the concentration of 1x10E4M; type: functional, NIH3T3
Mus musculus [4] = organism: Mus musculus; assay: Evaluated for the percent inhibition uptake of radiolabeled thymidine as a measure of inhibition of cell division against the SV40-transformed 3T3 cells after 4 hr at the concentration of 6; type: functional, NIH3T3
[5] = Compound treated with MPM cell homogenate at pH 3 to isolate compound 4 (ng); type: ADME, cell-based
[6] = Compound treated with MPM cell homogenate at pH 6.5 to isolate compound 4 (ng); type: ADME, cell-based
[7] = Compound in absence of MPM cell homogenate at pH 3 to isolate compound 4 (ng); type: ADME, cell-based
Mus musculus [8] = organism: Mus musculus; assay: Cytotoxicity was determined against mouse peritoneal macrophages (MPM) and the percent of LDH released after 24 hr was determined as a measure of cell death at a concentration of 0.375 mM (expt I); type: functional
[9] = Compound treated with MPM cell homogenate at pH 8 to isolate compound 4 (ng); type: ADME, cell-based
Mus musculus [10] = organism: Mus musculus; assay: Cytotoxicity was determined for the compound against mouse peritoneal macrophages (MPM) at a concentration of 0.165 mM.; type: functional
MPM [11] = assay: Compound (steam-treated 10 min) in presence of MPM cells at pH 3 to isolate compound 4 (ng); No data; type: cell-based
[12] = Compound treated with MPM cell homogenate at pH 7.5 to isolate compound 4 (ng); type: ADME, cell-based
[13] = Compound treated with MPM cell homogenate at pH 4.5 to isolate compound 4 (ng); type: ADME, cell-based
[14] = Compound treated with MPM cell homogenate at pH 4 to isolate compound 4 (ng); type: ADME, cell-based
[15] = Compound treated in absence of MPM cell homogenate at pH 4.5 to isolate compound 4 (ng); type: ADME, cell-based
[16] = Compound treated with MPM cell homogenate at pH 6 to isolate compound 4 (ng); type: ADME, cell-based
MPM [17] = assay: Compound along with 10 uM HgCl2 in presence of MPM cells at pH 3 to isolate compound 4 (ng); type: cell-based
Mus musculus [18] = organism: Mus musculus; assay: Appearance of mouse peritoneal macrophages after 3h of treatment with compound at a concentration of 0.375 mM; vacuoles, rounded; type: functional, organism-based
MPM [19] = assay: Compound in presence of MPM cells and in absence of inactivator at pH 8 to isolate compound 4 (ng); type: cell-based
[20] = Compound in absence of MPM cell homogenate at pH 4.5 to isolate compound 4 (ng); type: ADME, cell-based
Mus musculus [21] = organism: Mus musculus; assay: Cytotoxicity was determined against mouse peritoneal macrophages (MPM) and the percent of LDH released after 24 hr was determined as a measure of cell death at a concentration of 0.375 mM (expt II); type: functional
[22] = Compound treated with MPM cell homogenate at pH 7 to isolate compound 4 (ng); type: ADME, cell-based
MPM [23] = assay: Compound in presence of MPM cells and in absence of inactivator at pH 3 to isolate compound 4 (ng); type: cell-based
[24] = Compound treated with MPM cell homogenate at pH 5.5 to isolate compound 4 (ng); type: ADME, cell-based
MPM [25] = assay: Compound along with 3 mM leupeptin in presence of MPM cells at pH 3 to isolate compound 4 (ng); type: cell-based
[26] = Compound in absence of MPM cell homogenate at pH 7 to isolate compound 4 (ng); type: ADME, cell-based
MPM [27] = assay: Compound along with 4 mM pepstatin in presence of MPM cells at pH 3 to isolate compound 4 (ng); type: cell-based
MPM [28] = assay: Compound in absence of MPM cells and in absence of inactivator at pH 8 to isolate compound 4 (ng); type: cell-based
Mus musculus [29] = organism: Mus musculus; assay: Toxicity toward P-815 Mastocytoma cells after 5 hr was determined as percent of [51Cr]- release from labeled cells as a measure of cell death. at a concentration of 0.331 mM. (expt III); type: functional
[30] = Compound treated with MPM cell homogenate at pH 5 to isolate compound 4 (ng); type: ADME, cell-based
Mus musculus [31] = organism: Mus musculus; assay: Toxicity was evaluated for the compound at a concentration of 0.331 mM against […] Mastocytoma.; type: functional
[32] = Compound treated with MPM cell homogenate at pH 3.5 to isolate compound 4 (ng); type: ADME, cell-based

O=C(CNC(=O)OCc1ccccc1)N[C@@H](Cc1ccccc1)C(=O)O (Cbz-Gly-Phe-OH)
Cr release (Mus musculus [1]): 16%

CC(C)(C)OC(=O)NCC(=O)N[C@H](Cc1ccccc1)C(=O)N(CCCl)CCCl
Inhibition uptake (Mus musculus [2]): 33% | Inhibition uptake (Mus musculus [3]): -4% | Inhibition uptake (Mus musculus [4]): 52%

CCCCCCCCCCCCN(CC(F)(F)F)C(=O)[C@@H](Cc1ccccc1)NC(=O)CNC(=O)OCc1ccccc1
Activity [5]: 92 | Activity [6]: 28 | Activity [7]: 30 | LDH release (Mus musculus [8]): 73% | Activity [9]: 104 | Toxicity (Mus musculus [10]): 100 µg/mL | Activity (MPM [11]): 0 | Activity [12]: 52 | Activity [13]: 92 and 36 | Activity [14]: 49 | Activity [15]: < 14 | Activity [16]: 54 | Activity (MPM [17]): 28 | Activity (Mus musculus [18]): vacuoles, rounded | Activity (MPM [19]): 24 | Activity [20]: 36 | LDH release (Mus musculus [21]): 61% | Activity [22]: 34 | Activity (MPM [23]): 53 | Activity [24]: 22 | Activity (MPM [25]): 23 | Activity [26]: 20 | Activity (MPM [27]): 27 | Activity (MPM [28]): 13 | Cr release (Mus musculus [29]): 22% | Activity [30]: 30 | Toxicity (Mus musculus [31]): 200 µg/mL | Activity [32]: 79
